Measurements reported in US20190183114A1, “METHODS AND COMPOSITIONS FOR THE PRESERVATIONOF ORGANS” (INSERM (Institut National de la Sante et de la Recherche …, priority 2016, published 2019).
“Also recorded” adds a separate entry of the source.

Legend:
Type in all cases: cell-based, human
HAEC = assay: XTT viability assay on HAEC subjected to 24 h of cold ischemia followed by 6 h of reperfusion; settings: for cell viability / survival after ischemia reperfusion (XTT): 24 h ischemia + 6 h reperfusion, treated during hypoxia from start (AEBSF 300 μM, Salubrinal 75 μM, STF083010 10 μM, 4μ8c 10 μM); for protection against cell death, treatment delayed by 12 h after start of cold ischemia: treatment after 12 h; for protection against cell death, treatment delayed by 12 h after start of cold ischemia / protection against cell death, treatment delayed by 6 h after start of cold ischemia: data not shown; for protection against cell death, treatment delayed by 6 h after start of cold ischemia: treatment only at 6 h
Method: Primary human aortic endothelial cells (HAEC) were obtained from Gibco (Lot No: #765093 and Lot No: #999999) and cultured on 1% gelatin (Sigma) coated flasks of 75 cm^2 in M200 medium supplemented with LSGS (Gibco), 8% fetal bovine serum (FBS), and 100 μg/mL penicillin and streptomycin in a humidified atmosphere at 21% O2, 5% CO2 and 37° C. The cells were split at a ratio of 1:4 every 5 days. Cells up to passage 5 were used in this study. All cell culture media, serum, and supplements were purchased from Invitrogen. STF083010 (10 μM) and 4μ8c (10 μM) were purchased from Axon MedChem. Salubrinal (75 μM) was from R&D. Tunicamycin ([…]), sodium 4-phenylbutyrate (1 mM), and 4-(2-Aminoethyl)benzenesulfonyl fluoride (AEBSF, 300 μM) were from Sigma. All chemicals were dissolved in DMSO (Sigma). IRE1α^−/− and IRE1α^+/+—which are IRE1α^−/− cells rescued by a retrovirus encoding a Flag-tagged human IRE1α—murine embryonic cells (MEC) were produced as previously described (Volmer R, Ploeg K van der, Ron D. Membrane lipid saturation activates endoplasmic reticulum unfolded protein response transducers through their transmembrane domains. Proc. Natl. Acad. Sci. 2013; 201217611). MEC were cultured in DMEM high-glucose media (Gibco) supplemented with 10% FBS, non-essential amino acids (Gibco), penicillin and streptomycin (Gibco), L-glutamine (Gibco), and puromycin (3 μg/mL).
(§1) HAEC were washed with PBS before being incubated in cold University of Wisconsin (UW) preservation solution in a chamber with hypothermic (4° C.) hypoxic atmosphere obtained by flushing the chamber atmosphere with Bactal 2 (0% O2, 95% N2 and 5% CO2) until the reach of 0% 02 in the chamber atmosphere. The oxygen level was controlled with the oximeter Oxy-4 micro from PreSens Precision Sensing GmbH with channels present in the outside atmosphere, the chamber atmosphere, and the cell supernatant. To perform the normothermic reoxygenation, cells were washed with PBS and then incubated with M200 supplemented with 2% FBS in a humidified atmosphere at 21% O2, 5% CO2 and 37° C. The durations of both hypoxia and reoxygenation are indicated in figure legends and in the manuscript.
Reverse transfection were performed using ON-TARGETplus SMART pool siRNAs targeting IRE1α (#L-004951-02-0005), XBP1 (#L-009552-00-0005), PERK (#L-004883-00-0005), ATF4 (#L-005125-00-0005), ATF6 (#L-009917-00-0005), or ON-TARGETplus Non-targeting Pool control siRNAs (#D-001810-10-05). They were purchased from Dharmacon and used at a final concentration of 20 nM. The transfection was performed using Lipofectamine RNAiMAX and Opti-MEM reduced serum medium according to the manufacturer's instructions (Invitrogen). After 6 hours of transfection, the cell medium was replaced with fresh cell culture medium containing 10% of FBS, LSGS but no antibiotics and no antimycotics. After 24 hours of transfection, cells were subjected to hypoxia-reoxygenation experiments. For cells in 96- and 24-wells plates, cell viability was analyzed according to protocol provided (XTT cell proliferation kit II, Roche Diagnostics) while cells in 6-wells were subjected to RT-qPCR analysis to detect knockdown efficiency.

ATF6 [1] = assay: RT-qPCR of ATF6 downstream targets HerpUD and GRP78 in tunicamycin-treated HAEC; settings: 6 h tunicamycin
Method: (§2) Primary human aortic endothelial cells (HAEC) were obtained from Gibco (Lot No: #765093 and Lot No: #999999) and cultured on 1% gelatin (Sigma) coated flasks of 75 cm^2 in M200 medium supplemented with LSGS (Gibco), 8% fetal bovine serum (FBS), and 100 μg/mL penicillin and streptomycin in a humidified atmosphere at 21% O2, 5% CO2 and 37° C. The cells were split at a ratio of 1:4 every 5 days. Cells up to passage 5 were used in this study. All cell culture media, serum, and supplements were purchased from Invitrogen. STF083010 (10 μM) and 4μ8c (10 μM) were purchased from Axon MedChem. […]
(§3) RNA was extracted from HAEC using the NucleoSpin RNA kit (Macherey-Nagel) containing a DNase treatment to remove potentially contaminating genomic DNA. […] A quantity of 1 μg of total RNA was reverse-transcribed with High Capacity cDNA Reverse Transcription kit (ABsystems). RT-qPCR was performed in triplicate with negative template controls, negative enzyme controls and the use of a calibrator to limit inter-run variations as recommended by the MIQE guidelines (Bustin S A, Benes V, Garson J A, Hellemans J, Huggett J, Kubista M, et al. The MIQE Guidelines: Minimum Information for Publication of Quantitative Real-Time PCR Experiments. Clin. Chem. 2009; 55:611-22). […]

CHOP [2] = assay: RT-qPCR of CHOP mRNA in tunicamycin-treated HAEC; settings: 6 h tunicamycin, hydrochloride
Method: as §2, §3

CHOP [3] = assay: RT-qPCR of CHOP mRNA in HAEC subjected to 24 h of ischemia
Method: as §1, with “The durations of both hypoxia and reoxygenation are indicated in figure legends and in the manuscript.” left out
as §3

IRE1α's RNase activity [4] = assay: XBP1s and Erdj4 expression in tunicamycin-stimulated cells; settings: data not shown
Method: as §2, §3

IRE1α's RNase activity [5] = assay: XBP1 mRNA splicing in cells subjected to 6 h ischemia; settings: data not shown
Method: as §1
We followed the method used in (Fougeray S, Bouvier N, Beaune P, Legendre C, Anglicheau D, Thervet E, et al. Metabolic stress promotes renal tubular inflammation by triggering the unfolded protein response. Cell Death Dis. 2011; 2:e143). The XBP1 cDNA encompassing the region of restriction site was amplified by PCR. […] The spliced isoform of XBP1 mRNA was resistant to Pst1 and was detected as a 448-bp amplification product whereas the unspliced isoform, containing Pst1 restriction site, was detected by the presence of two amplification products of 291-bp and 183-bp (FIG. 8A, right).

ATF6 [6] = assay: Western blot analysis of ATF6 at different times of ischemia; settings: data not shown
Method: as §1
(§4) HAEC were washed in cold PBS and resuspended in complete lysis buffer (Roche Diagnostics, #04719956001) before being sonicated at output power of 2 for 3 seconds (Branson Sonifier 450). The protein concentration of cell lysate supernatants was measured by BCA protein assay (Bio-Rad, #23225). […] The bound primary antibodies were detected with ChemiDoc™ MP imager (Bio-Rad) by the use of HRP-conjugated secondary antibody and the ECL detection system (Amersham Biosciences). […]

ATF4 = ATF4 production in EC subjected to 6 h of ischemia; settings: data not shown
Method: as §1, §4

## Cl.NCCc1ccc(S(=O)(=O)F)cc1 [AEBSF, 4-(2-Aminoethyl) benzenesulfonyl fluoride hydrochloride]
HAEC; hydrochloride
  cell viability / survival after ischemia reperfusion (XTT): improves viability; also recorded: protected endothelial cells against cold ischemia-induced death; also recorded: correctly protected EC against death
HAEC
  protection against cell death, treatment delayed by 12 h after start of cold ischemia: protective effect was significantly lost
  protection against cell death, treatment delayed by 6 h after start of cold ischemia: trend towards decreased protection
ATF6 [1]
  GRP78 mRNA expression: decreased
  HerpUD mRNA expression: decreased
CHOP [2]
  CHOP mRNA expression: decreases CHOP expression; also recorded: lower CHOP mRNA expression

## Cc1cc(=O)oc2c(C=O)c(O)ccc12 [4μ8c]
HAEC
  cell viability / survival after ischemia reperfusion (XTT): increased EC survival

## O=S(=O)(N=Cc1c(O)ccc2ccccc12)c1cccs1 [STF083010, N-[(2-Hydroxy-1-naphthalenyl)methylene]-2-thiophenesulfonamide]
HAEC
  cell viability / survival after ischemia reperfusion (XTT): improves viability; also recorded: increased EC survival
  protection against cell death, treatment delayed by 12 h after start of cold ischemia: did not alter the protection
  protection against cell death, treatment delayed by 6 h after start of cold ischemia: did not alter the protection
HAEC; listed as STF
  cell viability / survival after ischemia reperfusion (XTT): significantly increased EC survival
CHOP [3]
  CHOP mRNA expression: decreased CHOP mRNA expression
CHOP [3]; listed as STF
  CHOP mRNA expression: significantly decreased CHOP expression to control levels
IRE1α's RNase activity [4]
  Erdj4 expression: abrogated
  XBP1s expression: abrogated
IRE1α's RNase activity [5]
  XBP1 mRNA splicing: inhibited splicing
ATF6 [6]; after 12 h of ischemia
  ATF6 expression (Western blot): trend towards increased ATF6 expression
ATF6 [6]; at 24 h of ischemia
  ATF6 expression (Western blot): no significant differences

## O=C(C=Cc1ccccc1)NC(NC(=S)Nc1cccc2cccnc12)C(Cl)(Cl)Cl (stereo not shown) [Salubrinal, 3-phenyl-N-[2,2,2-trichloro-1-[[(8-quinolinylamino)thioxomethyl]amino]ethyl]-2-propenamide]
HAEC
  cell viability / survival after ischemia reperfusion (XTT): improves viability; also recorded: significantly increased EC survival
  protection against cell death, treatment delayed by 6 h after start of cold ischemia: lost
HAEC; listed as Salubinal
  cell viability / survival after ischemia reperfusion (XTT): significantly protected cells against death
ATF4
  ATF4 production: effectively increased
